Data: patent US9499550B2 (BRISTOL-MYERS SQUIBB COMPANY, priority 2012, dated 2016)
Where two headings read alike, the source gives them in different places.

Columns and labels:
[1] = system: HCV genotype 1a (H77 strain) replicon in HUH-7 cells; assay: HCV replicon luciferase reporter assay, genotype 1a; format: cell-based; conditions: Hepatitis C virus, Huh-7, 72 h, 3 days incubation, read-out: LE_1a (EC50, range)
In short: (§1)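 Replicon inhibition for both genotypes was measured as Renilla luciferase signal (EnduRen, 7.5 μM final, 2 h) after 3-day, 37° C exposure of replicon-bearing HUH-7 cells in 4% FCS DMEM, 0.5% DMSO. The 1b construct carries S1179I; the 1a H77 construct carries P1496L and S2204I. Twenty-point, 3-fold dilutions were fitted four-parametrically for EC50, and CC50 was taken from multiplexed Cell Titer-Blue.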

[2] = system: HCV genotype 1b (Con1) replicon in HUH-7 cells; assay: HCV replicon luciferase reporter assay, genotype 1b; format: cell-based; conditions: Hepatitis C virus, Huh-7, 72 h, 3 days incubation, read-out: LE_1b (EC50, range)
In short: as §1

[3] = HCV genotype 1a replicon luciferase
[4] = HCV genotype 1b replicon luciferase
[5] = HCV genotype 1a replicon luciferase assay, range class
[6] = HCV genotype 1b replicon luciferase assay, range class
[7] = GETYPE1A, HCV genotype 1a replicon luciferase
[8] = GETYPE1B, HCV genotype 1b replicon luciferase

SMILES	EC50 [1, 3]	EC50 [2, 4]	EC50 [1, 5]	EC50 [2, 6]	other results
CCOc1cnc(O[C@@H]2C[C@H]3C(=O)N[C@]4(C(=O)NS(=O)(=O)C5(F)CC5)C[C@H]4/C=C\CC[C@@H](C)C[C@@H](C)[C@H](NC(=O)OC(C)(C)C)C(=O)N3C2)c2ccccc12 [Compound 4053, tert-butyl (2R,6S,7R,9R,13aS,14aR,16aS,Z)-2-(4-ethoxyisoquinolin-1-yloxy)-14a-(1-fluorocyclopropylsulfonylcarbamoyl)-7,9-dimethyl-5,16-dioxo-1,2,3,5,6,7,8,9,10,11,13a,14,14a,15,16,16a-hexadecahydrocyclopropa[e]pyrrolo[1,2-a][1,4]diazacyclopentadecin-6-ylcarbamate]	< 5.46 nM	< 5.46 nM			
COCCn1nc(O[C@@H]2C[C@H]3C(=O)N[C@]4(C(=O)NS(=O)(=O)C5(C)CC5)C[C@H]4/C=C\CC[C@@H](C)C[C@@H](C)[C@H](NC(=O)OC(C)(C)C(C)(F)F)C(=O)N3C2)c2ccccc2c1=O [Compound 1020, 3,3-difluoro-2-methylbutan-2-yl((2R,6S,7R,9R,13aS,14aR,16aS,Z)-2-((3-(2-methoxyethyl)-4-oxo-3,4-dihydrophthalazin-1-yl)oxy)-7,9-dimethyl-14a-(((1-methylcyclopropyl)sulfonyl)carbamoyl)-5,16-dioxo-1,2,3,5,6,7,8,9,10,11,13a,14,14a,15,16,16a-hexadecahydrocyclopropa[e]pyrrolo[1,2-a][1,4]diazacyclopentadecin-6-yl)carbamate]			4.82 to 103 nM	4.82 to 103 nM	
COc1ccc2c(O[C@@H]3C[C@H]4C(=O)N[C@]5(C(=O)NS(=O)(=O)C6(CF)CC6)C[C@H]5/C=C\CC[C@@H](C)C[C@@H](C)[C@H](NC(=O)OC(C)(C)C(F)(F)F)C(=O)N4C3)nc(N(C)C)cc2c1 [Compound 3127, 1,1,1-trifluoro-2-methylpropan-2-yl((2R,6S,7R,9R,13aS,14aR,16aS,Z)-2-((3-(dimethylamino)-6-methoxyisoquinolin-1-yl)oxy)-14a-(((1-(fluoromethyl)cyclopropyl)sulfonyl)carbamoyl)-7,9-dimethyl-5,16-dioxo-1,2,3,5,6,7,8,9,10,11,13a,14,14a,15,16,16a-hexadecahydrocyclopropa[e]pyrrolo[1,2-a][1,4]diazacyclopentadecin-6-yl)carbamate]			4.82 to 103 nM	< 5.46 nM	
COCCOc1cnc(O[C@@H]2C[C@H]3C(=O)N[C@]4(C(=O)NS(=O)(=O)C5CC5)C[C@H]4/C=C\CC[C@H](C)C[C@@H](C)[C@H](NC(=O)OC(C)(C)C(C)(F)F)C(=O)N3C2)c2ccc(OC)cc12 [Compound 1150, 3,3-difluoro-2-methylbutan-2-yl((2R,6S,7R,9S,13aS,14aR,16aS,Z)-14a-((cyclopropylsulfonyl)carbamoyl)-2-((6-methoxy-4-(2-methoxyethoxyl)isoquinolin-1-yl)oxy)-7,9-dimethyl-5,16-dioxo-1,2,3,5,6,7,8,9,10,11,13a,14,14a,15,16,16a-hexadecahydrocyclopropa[e]pyrrolo[1,2-a][1,4]diazacyclopentadecin-6-yl)carbamate]			< 5.46 nM	< 5.46 nM	
COc1ccc2c(O[C@@H]3C[C@H]4C(=O)N[C@]5(C(=O)NS(=O)(=O)C6(CF)CC6)C[C@H]5/C=C\CC[C@@H](C)C[C@@H](C)[C@H](NC(=O)OC5COC5)C(=O)N4C3)nc(OC)cc2c1 [Compound 1129, oxetan-3-yl ((2R,6S,7R,9R,13aS,14aR,16aS,Z)-2-((3,6-dimethoxyisoquinolin-1-yl)oxy)-14a-(((1-(fluoromethyl)cyclopropyl)sulfonyl)carbamoyl)-7,9-dimethyl-5,16-dioxo-1,2,3,5,6,7,8,9,10,11,13a,14,14a,15,16,16a-hexadecahydrocyclopropa[e]pyrrolo[1,2-a][1,4]diazacyclopentadecin-6-yl)carbamate]			< 5.46 nM	< 5.46 nM	
CC[C@@H]1C[C@H](C)CC/C=C\[C@@H]2C[C@@]2(C(=O)NS(=O)(=O)C2CC2)NC(=O)[C@@H]2C[C@@H](Oc3nccc4cc(OC)c(F)cc34)CN2C(=O)[C@H]1NC(=O)OC(C)(C)C(F)(F)F [Compound 4004, 1,1,1-trifluoro-2-methylpropan-2-yl (2R,6S,7R,9R,13aS,14aR,16aS,Z)-14a-(cyclopropylsulfonylcarbamoyl)-7-ethyl-2-(7-fluoro-6-methoxyisoquinolin-1-yloxy)-9-methyl-5,16-dioxo-1,2,3,5,6,7,8,9,10,11,13a,14,14a,15,16,16a-hexadecahydrocyclopropa[e]pyrrolo[1,2-a][1,4]diazacyclopentadecin-6-ylcarbamate]	< 5.46 nM	< 5.46 nM			
CCOc1cnc(O[C@@H]2C[C@H]3C(=O)N[C@]4(C(=O)NS(=O)(=O)C5(C)CC5)C[C@H]4/C=C\CC[C@@H](C)C[C@@H](C)[C@H](NC(=O)OC(C)(C)C(F)(F)F)C(=O)N3C2)c2cc(Cl)ccc12 [Compound 4076]					EC50 [1, 7]: < 5.46 nM; EC50 [2, 8]: < 5.46 nM
COc1ccc2c(O[C@@H]3C[C@H]4C(=O)N[C@]5(C(=O)NS(=O)(=O)C6(F)CC6)C[C@H]5/C=C\CC[C@@H](C)C[C@@H](C)[C@H](NC(=O)OC5C[C@@H]6C[C@@H]6C5)C(=O)N4C3)nccc2c1 (stereo partly shown) [Compound 4038]	< 5.46 nM	< 5.46 nM			
COc1cnc(O[C@@H]2C[C@H]3C(=O)N[C@]4(C(=O)NS(=O)(=O)C5(CF)CC5)C[C@H]4/C=C\CC[C@@H](C)C[C@@H](C)[C@H](NC(=O)OC4(C5CC5)COC4)C(=O)N3C2)c2ccccc12 [Compound 1060, 3-cyclopropyloxetan-3-yl((2R,6S,7R,9R,13aS,14aR,16aS,Z)-14a-(((1-(fluoromethyl)cyclopropyl)sulfonyl)carbamoyl)-2-((4-methoxyisoquinolin-1-yl)oxy)-7,9-dimethyl-5,16-dioxo-1,2,3,5,6,7,8,9,10,11,13a,14,14a,15,16,16a-hexadecahydrocyclopropa[e]pyrrolo[1,2-a][1,4]diazacyclopentadecin-6-yl)carbamate]			< 5.46 nM	< 5.46 nM	
COCCOc1cc2c(Cl)cccc2c(O[C@@H]2C[C@H]3C(=O)N[C@]4(C(=O)NS(=O)(=O)C5(C)CC5)C[C@H]4/C=C\CC[C@H](C)C[C@@H](C)[C@H](NC(=O)OC(C)(C)C(F)(F)F)C(=O)N3C2)n1 [Compound 1113, 1,1,1-trifluoro-2-methylpropan-2-yl((2R,6S,7R,9S,13aS,14aR,16aS,Z)-2-((5-chloro-3-(2-methoxyethoxyl)isoquinolin-1-yl)oxy)-7,9-dimethyl-14a-(((1-methylcyclopropyl)sulfonyl)carbamoyl)-5,16-dioxo-1,2,3,5,6,7,8,9,10,11,13a,14,14a,15,16,16a-hexadecahydrocyclopropa[e]pyrrolo[1,2-a][1,4]diazacyclopentadecin-6-yl)carbamate]			< 5.46 nM	< 5.46 nM	
COc1ccc2c(O[C@@H]3C[C@H]4C(=O)N[C@]5(C(=O)NS(=O)(=O)C6(C)CC6)C[C@H]5/C=C\CC[C@H](C)C[C@@H](C)[C@H](NC(=O)O[C@@H]5C[C@@H]6C[C@@H]6C5)C(=O)N4C3)nc(-c3ccc(F)cc3)cc2c1 [Compound 3086, (1R,3r,5S)-bicyclo[3.1.0]hexan-3-yl((2R,6S,7R,9S,13aS,14aR,16aS,Z)-2-((3-(4-fluorophenyl)-6-methoxyisoquinolin-1-yl)oxy)-7,9-dimethyl-14a-(((1-methylcyclopropyl)sulfonyl)carbamoyl)-5,16-dioxo-1,2,3,5,6,7,8,9,10,11,13a,14,14a,15,16,16a-hexadecahydrocyclopropa[e]pyrrolo[1,2-a][1,4]diazacyclopentadecin-6-yl)carbamate]			< 5.46 nM	< 5.46 nM	
COc1ccc2c(O[C@@H]3C[C@H]4C(=O)N[C@]5(C(=O)NS(=O)(=O)C6(CF)CC6)C[C@H]5/C=C\CC[C@@H](C)C[C@@H](C)[C@H](NC(=O)OC(C)(C)C)C(=O)N4C3)ncc(OC)c2c1 [Compound 4156, tert-butyl (2R,6S,7R,9R,13aS,14aR,16aS,Z)-2-(4,6-dimethoxyisoquinolin-1-yloxy)-14a-(1-(fluoromethyl)cyclopropylsulfonylcarbamoyl)-7,9-dimethyl-5,16-dioxo-1,2,3,5,6,7,8,9,10,11,13a,14,14a,15,16,16a-hexadecahydrocyclopropa[e]pyrrolo[1,2-a][1,4]diazacyclopentadecin-6-ylcarbamate]	< 5.46 nM	< 5.46 nM			
CC[C@@H]1C[C@H](C)CC/C=C\[C@@H]2C[C@@]2(C(=O)NS(=O)(=O)C2(C)CC2)NC(=O)[C@@H]2C[C@@H](Oc3cc(OC)nc4cc(OC)ccc34)CN2C(=O)[C@H]1NC(=O)OC(C)(C)C(C)(F)F [Compound 1210]					EC50 [1, 7]: 1.01 to 5 nM; EC50 [2, 8]: 0.51 to 1 nM
CCCOc1cnc(O[C@@H]2C[C@H]3C(=O)N[C@]4(C(=O)NS(=O)(=O)C5(C)CC5)C[C@H]4/C=C\CC[C@@H](C)C[C@@H](C)[C@H](NC(=O)O[C@H](C)C(F)(F)F)C(=O)N3C2)c2ccccc12 [Compound 5085, (R)-1,1,1-trifluoropropan-2-yl ((2R,6S,7R,9R,13aS,14aR,16aS,Z)-7,9-dimethyl-14a-(((1-methylcyclopropyl)sulfonyl)carbamoyl)-5,16-dioxo-2-((4-propoxyisoquinolin-1-yl)oxy)-1,2,3,5,6,7,8,9,10,11,13a,14,14a,15,16,16a-hexadecahydrocyclopropa[e]pyrrolo[1,2-a][1,4]diazacyclopentadecin-6-yl)carbamate]	4.82 to 103 nM	4.82 to 103 nM			
